According to ChEMBL document CHEMBL4011594, “Discovery and optimization of 2-pyridinone aminal integrase strand transfer inhibitors for the treatment of HIV” (Bioorg Med Chem Lett, 2017):
Converted amounts (≈) assume the structure as drawn.

Experiments:
[1] = Aqueous solubility of the compound at pH 2; format: physicochemical
[2] = Aqueous solubility of the compound at pH 7; format: physicochemical
[3] = tested on: Human immunodeficiency virus 1; assay: Inhibition of wild-type HIV-1 integrase strand transfer activity assessed as reduction in viral replication in presence of 10% normal human serum
[4] = tested on: Human immunodeficiency virus 1; assay: Inhibition of HIV-1 integrase strand transfer activity assessed as reduction in viral replication in presence of 50% normal human serum

SMILES: CCC(O)CN1C(=O)c2c3c(c(O)c(=O)n2C12CCC1CC12)C(=O)N(Cc1ccc(F)c(Cl)c1)CC3 (configuration not stated)
- solubility [1]: 69 µM (≈ 35.6 µg/mL)
- solubility [2]: 54 µM (≈ 27.9 µg/mL)
- IP [3]: 15 nM
- IP [4]: 120 nM

SMILES: O=C1NC2(CCCC2)n2c1c1c(c(O)c2=O)C(=O)N(Cc2ccc(F)c(Cl)c2)CC1
- solubility [1]: < 5 µM
- solubility [2]: 10 µM (≈ 4.32 µg/mL)
- IP [3]: 100 nM
- IP [4]: 1600 nM

SMILES: O=C(CN1C(=O)c2c3c(c(O)c(=O)n2C12CCC1CC12)C(=O)N(Cc1ccc(F)c(Cl)c1)CC3)N1CCOCC1 (configuration not stated)
- solubility [1]: 151 µM (≈ 86.2 µg/mL)
- solubility [2]: 67 µM (≈ 38.3 µg/mL)
- IP [3]: 18 nM
- IP [4]: 120 nM

SMILES: C[C@@H](O)CN1C(=O)c2c3c(c(O)c(=O)n2[C@@]12CC[C@H]1C[C@H]12)C(=O)N(Cc1ccc(F)c(Cl)c1)CC3
- solubility [1]: 190 µM (≈ 95.4 µg/mL)
- solubility [2]: 63 µM (≈ 31.6 µg/mL)
- IP [3]: 7 nM
- IP [4]: 33 nM

SMILES: O=C1NC2(CCc3ccccc32)n2c1c1c(c(O)c2=O)C(=O)N(Cc2ccc(F)c(Cl)c2)CC1 (racemic)
- solubility [1]: < 2 µM
- solubility [2]: < 2 µM
- IP [3]: 27 nM
- IP [4]: 190 nM

SMILES: Cc1cccc2c1C1(CC2)NC(=O)c2c3c(c(O)c(=O)n21)C(=O)N(Cc1ccc(F)c(Cl)c1)CC3 (racemic)
- solubility [1]: < 2 µM
- solubility [2]: < 2 µM
- IP [3]: 37 nM
- IP [4]: 140 nM

SMILES: CN1CC(=O)N(CCN2C(=O)c3c4c(c(O)c(=O)n3C23CCC2CC23)C(=O)N(Cc2ccc(F)c(Cl)c2)CC4)C1=O (configuration not stated)
- solubility [1]: 136 µM (≈ 79.4 µg/mL)
- solubility [2]: 56 µM (≈ 32.7 µg/mL)
- IP [3]: 8 nM
- IP [4]: 42 nM

SMILES: O=C1c2c(c3n(c(=O)c2O)C2(CCC4CC42)N(CCN2CCCS2(=O)=O)C3=O)CCN1Cc1ccc(F)c(Cl)c1 (configuration not stated)
- solubility [1]: 11 µM (≈ 6.5 µg/mL)
- solubility [2]: < 4 µM
- IP [3]: 17 nM
- IP [4]: 170 nM

SMILES: O=C1NC(C2CCCC2)n2c1c1c(c(O)c2=O)C(=O)N(Cc2ccc(F)c(Cl)c2)CC1 (racemic)
- solubility [1]: 116 µM (≈ 51.7 µg/mL)
- solubility [2]: < 5 µM
- IP [3]: > 10000 nM
- IP [4]: > 1000 nM

SMILES: CO[C@H](C)CN1C(=O)c2c3c(c(O)c(=O)n2C12CCC1CC12)C(=O)N(Cc1ccc(F)c(Cl)c1)CC3 (some centres not stated)
- solubility [1]: 46 µM (≈ 23.7 µg/mL)
- solubility [2]: 26 µM (≈ 13.4 µg/mL)
- IP [3]: 25 nM
- IP [4]: 180 nM

SMILES: O=C1CC[C@@H](CN2C(=O)c3c4c(c(O)c(=O)n3C23CCC2CC23)C(=O)N(Cc2ccc(F)c(Cl)c2)CC4)N1 (some centres not stated)
- IP [3]: 40 nM
- IP [4]: 130 nM

SMILES: Cc1cccc2c1CCC21NC(=O)c2c3c(c(O)c(=O)n21)C(=O)N(Cc1ccc(F)c(Cl)c1)CC3 (racemic)
- solubility [1]: < 2 µM
- solubility [2]: < 2 µM
- IP [3]: 140 nM
- IP [4]: 540 nM

SMILES: COCCN1C(=O)c2c3c(c(O)c(=O)n2C12CCC1CC12)C(=O)N(Cc1ccc(F)c(Cl)c1)CC3 (configuration not stated)
- solubility [1]: 54 µM (≈ 27.1 µg/mL)
- solubility [2]: 59 µM (≈ 29.6 µg/mL)
- IP [3]: 33 nM
- IP [4]: 197 nM

SMILES: COc1cccc2c1[C@]1(CC2)NC(=O)c2c3c(c(O)c(=O)n21)C(=O)N(Cc1ccc(F)c(Cl)c1)CC3
- solubility [1]: < 2 µM
- solubility [2]: 5 µM (≈ 2.55 µg/mL)
- IP [3]: 4 nM
- IP [4]: 22 nM

SMILES: Cc1ccc2c(c1)C1(CC2)NC(=O)c2c3c(c(O)c(=O)n21)C(=O)N(Cc1ccc(F)c(Cl)c1)CC3 (racemic)
- solubility [1]: < 2 µM
- solubility [2]: < 2 µM
- IP [3]: 45 nM
- IP [4]: 230 nM

SMILES: CN1CCN(CCN2C(=O)c3c4c(c(O)c(=O)n3C23CCC2CC23)C(=O)N(Cc2ccc(F)c(Cl)c2)CC4)S1(=O)=O (configuration not stated)
- solubility [1]: 18 µM (≈ 10.9 µg/mL)
- solubility [2]: 12 µM (≈ 7.27 µg/mL)
- IP [3]: 13 nM
- IP [4]: 65 nM

SMILES: COCC(O)CN1C(=O)c2c3c(c(O)c(=O)n2C12CCC1CC12)C(=O)N(Cc1ccc(F)c(Cl)c1)CC3 (configuration not stated)
- solubility [1]: 157 µM (≈ 83.5 µg/mL)
- solubility [2]: 123 µM (≈ 65.4 µg/mL)
- IP [3]: 16 nM
- IP [4]: 130 nM

SMILES: N#Cc1cccc2c1[C@@]1(CC2)NC(=O)c2c3c(c(O)c(=O)n21)C(=O)N(Cc1ccc(F)c(Cl)c1)CC3
- solubility [1]: 10 µM (≈ 5.05 µg/mL)
- solubility [2]: 17 µM (≈ 8.58 µg/mL)
- IP [3]: 1300 nM
- IP [4]: 4110 nM

SMILES: COc1nccc2c1C1(CC2)NC(=O)c2c3c(c(O)c(=O)n21)C(=O)N(Cc1ccc(F)c(Cl)c1)CC3 (racemic)
- IP [3]: 493 nM
- IP [4]: 1940 nM
